PubChem BioAssay (NCI)
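Each compound was tested at five concentrations against cells in 96-well plates for 48 hours. The concentration for 50% growth inhibition is given as GI50. The concentration for full growth arrest is given as TGI.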

How the values were obtained:
Test in all cases: NCI-60 cell line screen, 48 h
[1] = test system: RXF 393 renal
[2] = test system: HCT-15 colon
[3] = test system: TK-10 renal
[4] = test system: NCI-H522 lung
[5] = test system: CAKI-1 renal
[6] = test system: HCT-116 colon
[7] = test system: HCC-2998 colon
[8] = test system: SNB-19 CNS
[9] = test system: M14 melanoma
[10] = test system: EKVX NSCLC

SMILES	GI50 [1] [µM]	TGI [1] [µM]	GI50 [2] [µM]	TGI [2] [µM]	GI50 [3] [µM]	TGI [3] [µM]	GI50 [4] [µM]	TGI [4] [µM]	GI50 [5] [µM]	TGI [5] [µM]	GI50 [6] [µM]	TGI [6] [µM]	GI50 [7] [µM]	TGI [7] [µM]	GI50 [8] [µM]	TGI [8] [µM]	GI50 [9] [µM]	TGI [9] [µM]	GI50 [10] [µM]	TGI [10] [µM]
O=C(Cc1csc2nc(-c3ccc(Br)cc3)cn12)N/N=C/c1ccccc1O	37.7	62.5	0.952	17.3	2.05	8.72	5.27	27.2	0.397	2.4	3.21	12.4	3.48	12.7	6.8	25.4	2.58	7.77	3.93	19.2
Cc1cc(N(CCC#N)CCC#N)ccc1/C=C1N=C(/C=C\c2ccccc2)N(c2ccc(C(=O)O)cc2)C\1=O				> 100		> 100		> 100		> 100		> 100				> 100		> 100		
Cc1ccc(-n2cc(/C(N)=N/O)c3ccccc3c2=O)cc1				> 100		> 100		> 100				> 100		> 100		> 100		> 100		> 100
COc1cc(COC(=O)N(C)[C@@H](Cc2ccccc2)C(=O)O)c([N+](=O)[O-])cc1OC				> 100								> 100		> 100		> 100		> 100		> 100
CCOC(=O)c1cnc2c(ccc3ncccc32)c1OCC		> 100		> 100		> 100		> 100				> 100		> 100		> 100		> 100		> 100
O=C(CC/C(CC(=O)c1ccc(Cl)cc1)=N\O)Nc1cccc(Cl)c1				> 100		> 100				> 100				> 100		> 100		> 100		> 100
COc1ccc(/C(C#N)=C2/O/C(=N/N)C(c3ccc(OC)c(OC)c3)C2=O)cc1OC (stereo not given)				> 100		> 100		> 100		> 100		> 100						> 100		> 100
CSc1ccc2c(c1)N(CCCN(C)C)c1ccccc1S2		22.5		30.4		28.3		26.6		21.2		26.9				30.6		17.8		35.1
CCOC(=O)C(=O)Nc1nc2ccc(OC)cc2s1				> 100		> 100				> 100				> 100		> 100		> 100		> 100
C=C1CCC2C(C)(CO)C(O)CCC2(C)C1C/C=C1\C(=O)OCC1O (stereo not given)		33.8		39.5		> 100		28.4				28.9		50.6		> 100		53.7		99.7
COc1cc(C(=O)Nc2ccc(-c3nc4ccccc4[nH]3)cc2)cc(OC)c1OC	10.7	30.9	6.61	24.4	15.1	29.3	7.75	29.9	10.9	25.3	10.7	25.3	14.6	36.6	11.6	29.1				
